Results reported in ChEMBL document CHEMBL1139661, “Arylaminoethyl amides as noncovalent inhibitors of cathepsin S. Part 2: Optimization of P1 and N-aryl” (Bioorg Med Chem Lett, 2006).

Assays:
Assay type in all cases: ADME, organism-based; call rule not given here
[1] = (§1) Half life in Wistar rat at 10 mg/kg; design: dose 10 mg/kg; conditions: Wistar, in vivo
[2] = Cmax in Wistar rat at 10 mg/kg, po; design: dose 10 mg/kg, route oral; conditions: in vivo
[3] = AUC in Wistar rat at 10 mg/kg, po; design: dose 10 mg/kg, route oral; conditions: plasma
[4] = Oral bioavailability in Wistar rat at 10 mg/kg, po; conditions: in vivo
Rattus norvegicus = experiment: as §1; design: dose 10 mg/kg; conditions: in vivo

Row | half-life [1] | Cmax [2] | AUC [3] | bioavailability [4] | T1/2 (Rattus norvegicus) | SMILES
1 | 33.6 min | 0.045 µM | 0.1 µg·h/mL | 2% |  | COc1cccc(C(=O)N[C@@H](CC(C)(C)C)C(=O)N[C@@H](CC(=O)O)CN2CCc3cc(F)ccc32)c1
2 |  | 0.293 µM | 0.308 µg·h/mL | 8% | Not Active | CCOC(=O)C[C@@H](CN1CCc2cc(F)ccc21)NC(=O)[C@H](CCC1CCCCC1)NC(=O)c1cccc(OC)c1
